Measurements as given in patent EP1881000A1, “Conjugates of 2-fluoro-2-deoxy-glucose and their uses as anti cancer agents” (INSTITUT NATIONAL DE LA SANTE ET DE LA RECHERCHE MEDICALE …, priority 2006, dated 2008).
Values joined by “and” are separate entries in the source; they are usually repeats but may differ in a detail not shown here. Equal entries are not always repeated.

How the values were obtained:
[1] = test system: CT-26 colon carcinoma; assay: Antitumour activity in CT-26 colon carcinoma bearing mice, IP chemotherapy protocol; format: in vivo, BALB/c male mice; conditions: for tumour growth inhibition (CTW time-course): CT26 carcinoma, vs non-treated and vehicle-treated groups, p< 0.05; for LCK / Survival Mt/Mc / Weight loss (% max) / antitumour activity according to the NCI criteria decisions / Antitumour Efficacy: CT26 colon carcinoma; for antitumour activity according to the NCI criteria decisions: in words; for Life span of the animals: CT-26 colon carcinoma-bearing mice
Protocol: (§1) Drugs were dissolved in a mixture of dimethylacetamide (Sigma) and oleic macrogolglycerides (Labrafil® M1944Cs, Gattefossé) (10:90%, vol/vol).
It is performed in tumour-bearing mice following an IP chemotherapy protocol.
To establish CT-26 colon carcinoma model, 2.5 x 10^5 CT26 cells (Dr Iaiaih J.Filder of MDAnderson Cancer Center, University of Texas; in vitro doubling time of 20 hours) were suspended in 100 µL of phosphate buffer solution and injected into the subcutaneous tissue of the right flank of BALB/c male mice, 6-weeks-old (Charles River, France) on day zero.
For both molecules and both animal models, treatment was initiated eight days post tumour grafting, when the tumours had reached a measurable size, corresponding to a calculated tumour weight (CTW) of 40 and 70 mg for B16 and CT-26 models respectively.
Animals were then randomly divided in both treatment and control groups. […] Two dosages have been evaluated, MTD and 0.75 MTD
Mice were weighed and observed every two days over a 30-day -period to evaluate general clinical state. Length and width of tumours were measured every two days over a 30-day-period using a dedicated slide calliper.
The Calculated Tumour Weight (CTW) of each tumour was determined according to the formula: CTW(mg) = L × 1^2 /2 [formula] with L = length in mm and 1= width in mm.
Considering physiopathological features of the CT26 colon carcinoma model, mainly cachexy, drugs 21a and 40a, were assessed at the lowest dosage, i.e. 0.75 MTD administered at Day 8, Day 12, Day 16.
The reference treatment chlorambucil was given at the MTD dosage according to the same schedule.
For subcutaneously growing tumours, antitumour activity is often assessed by using the log10 cell kill (LCK) which is calculated from the following formula: LCK = T-C value in days/3.32 × Td [formula] T is the median time (in days) required for the treatment group tumours to reach a predetermined CTW (e.g. 1000 mg). C is the median time (in days) required for the control group tumours to reach the same CTW. Td is the tumour volume doubling time (in days) estimated from the best fit straight line from a log-linear growth plot of the control group tumours in exponential growth.
An increase in life span was defined by the ratio of the median survival of drug-treated mice (Mt) versus controls (Mc): a survival Mt/Mc equal or higher than 125 % was sought
Mean weight loss of the group was used to evaluate treatment side effects. A mean body weight loss of greater 20% was considered to indicate an excessively toxic dosage.

[2] = Determination of the Maximum Tolerated Dose (MTD), acute toxicity after a single IP injection; format: in vivo, male OF1 mice; design: key to Clinical State Score (CSS) diarrhoea / Clinical State Score (CSS) rough coat / Clinical State Score (CSS) closed eyes / Clinical State Score (CSS) lethargy / Clinical State Score (CSS) total: per mouse 0 = absent, 1 = present per sign; summed over group; conditions: for dosage inducing high side effects (mainly diarrhoea): as early as Day 1 after IP administration; for MTD at 2 weeks: male, OF1, mouse, in vivo, zero deaths, maximal weight loss 15 % at Day 1, CSS as low as possible; for MTD at 2 weeks / doses inducing 100% mortality: single IP administration; for Number of deaths (day): non-tumour bearing mice; for Clinical State Score (CSS) closed eyes / Clinical State Score (CSS) diarrhoea / Clinical State Score (CSS) lethargy / Clinical State Score (CSS) rough coat / Clinical State Score (CSS) total: group sum
Protocol: as §1
Initially, the Maximum Tolerated Dose (MTD) after intraperitoneal (IP) administration was determinated.
For MTD determination, study was conducted on male OF1 mice weighing about 30 g, 6-weeks old (Charles River, France). Groups of five to six mice received a single IP injection of each drug at variable doses according to the compound (see Tables 2, 3 and 4).
Individual dose were based on the body weight of each mouse. All the mice received a constant injection volume of 250 µL per 25 g of body weight. A group of seven control mice received the vehicle.
After IP injection, mice were weighed and observed every two days over a 2 week-period to evaluate general clinical state. For each animal, a clinical state score (CSS) was calculated based on the absence (value 0) or presence (value 1) of diarrhoea, lethargy, rough coat and closed eyes. CSS was then calculated per group by summing individual scores. Loss of weight and mortality were also recorded.

[3] = 0,75 MTD IP at Day 8, 12 and 16

Structure (SMILES): O=C(O)CCCc1ccc(N(CCCl)CCCl)cc1 [chlorambucil, reference compound]
- tumour growth inhibition (CTW time-course) ([1]; MTD dosage, same schedule): significant tumour growth inhibition
- LCK ([1]; dosage not stated): 0.79
- LCK ([1]; MTD, IP D8, D12, D16): 0.79
- Survival Mt/Mc ([1]; MTD, IP D8, D12, D16): 0.74
- Weight loss (% max) ([1]; MTD, IP D8, D12, D16): 13.9%
- antitumour activity according to the NCI criteria decisions [1]: discrete antitumour activity
- antitumour activity according to the NCI criteria decisions ([1]; listed as Chlorambucil): failed in exhibiting any antitumour activity
- Life span of the animals [1]: not
- dosage inducing high side effects (mainly diarrhoea) [2]: ≥ 0.0175 mmol/kg
- MTD at 2 weeks [2]: 50 µmol/kg
- Weight loss at day 1 ([2]; single IP 0.0175 mmol/kg): 1.4%
- Number of deaths (day) ([2]; single IP 0.0175 mmol/kg): 0
- Weight loss at day 1 ([2]; single IP 0.035 mmol/kg): 6.1%
- Number of deaths (day) ([2]; single IP 0.035 mmol/kg): 0
- Weight loss at day 1 ([2]; single IP 0.05 mmol/kg): 12.9%
- Number of deaths (day) ([2]; single IP 0.05 mmol/kg): 0
- Weight loss at day 1 ([2]; single IP 0.07 mmol/kg): 13.1%
- Number of deaths (day) ([2]; single IP 0.07 mmol/kg): 0
- Weight loss at day 1 ([2]; single IP 0.09 mmol/kg): 26%
- Number of deaths (day) ([2]; single IP 0.09 mmol/kg): 1 (D1)
- Number of deaths (day) ([2]; single IP 0.14 mmol/kg): 4 (D1)
- doses inducing 100% mortality [2]: 0.14 mmol/kg

Structure (SMILES): CC(=O)OC[C@H]1O[C@@H](NC(=O)CNC(=O)CCCc2ccc(N(CCCl)CCCl)cc2)[C@H](F)[C@@H](OC(C)=O)[C@@H]1OC(C)=O [Compound 21a, N-[2-(3,4,6-tri-O-acetyl-2-deoxy-2-fluoro-β-D-glucopyranosylamino)-2-oxoethyl]-4-{4-[bis(2-chloroethyl)amino]phenyl}butanamide]
- tumour growth inhibition (CTW time-course) [1, 3]: significant tumour growth inhibition
- LCK ([1]; dosage not stated): around 1.1
- Antitumour Efficacy ([1]; 75% MTD, IP D8, D12, D16): + (0.7 < LCK < 1.2 active drug (+))
- LCK ([1]; 75% MTD, IP D8, D12, D16): 1.10
- Survival Mt/Mc ([1]; 75% MTD, IP D8, D12, D16): 1.5
- Weight loss (% max) ([1]; 75% MTD, IP D8, D12, D16): 17.1%
- antitumour activity according to the NCI criteria decisions [1]: active
- Life span of the animals [1]: increased
- dosage inducing high side effects (mainly diarrhoea) [2]: ≥ 0.14 mmol/kg
- MTD at 2 weeks [2]: 140 µmol/kg
- Weight loss at day 1 ([2]; single IP 0.07 mmol/kg): 5.6%
- Clinical State Score (CSS) closed eyes ([2]; single IP 0.07 mmol/kg): 0
- Clinical State Score (CSS) diarrhoea ([2]; single IP 0.07 mmol/kg): 1
- Clinical State Score (CSS) lethargy ([2]; single IP 0.07 mmol/kg): 0
- Clinical State Score (CSS) rough coat ([2]; single IP 0.07 mmol/kg): 0
- Clinical State Score (CSS) total ([2]; single IP 0.07 mmol/kg): 1
- Number of deaths (day) ([2]; single IP 0.07 mmol/kg): 0
- Weight loss at day 1 ([2]; single IP 0.14 mmol/kg): 8.4%
- Clinical State Score (CSS) closed eyes ([2]; single IP 0.14 mmol/kg): 0
- Clinical State Score (CSS) diarrhoea ([2]; single IP 0.14 mmol/kg): 4
- Clinical State Score (CSS) lethargy ([2]; single IP 0.14 mmol/kg): 0
- Clinical State Score (CSS) rough coat ([2]; single IP 0.14 mmol/kg): 0
- Clinical State Score (CSS) total ([2]; single IP 0.14 mmol/kg): 4
- Number of deaths (day) ([2]; single IP 0.14 mmol/kg): 0
- Weight loss at day 1 ([2]; single IP 0.18 mmol/kg): 10.4%
- Clinical State Score (CSS) closed eyes ([2]; single IP 0.18 mmol/kg): 0
- Clinical State Score (CSS) diarrhoea ([2]; single IP 0.18 mmol/kg): 4
- Clinical State Score (CSS) lethargy ([2]; single IP 0.18 mmol/kg): 0
- Clinical State Score (CSS) rough coat ([2]; single IP 0.18 mmol/kg): 4
- Clinical State Score (CSS) total ([2]; single IP 0.18 mmol/kg): 8
- Number of deaths (day) ([2]; single IP 0.18 mmol/kg): 1
- Weight loss at day 1 ([2]; single IP 0.21 mmol/kg): 9.7%
- Clinical State Score (CSS) closed eyes ([2]; single IP 0.21 mmol/kg): 0
- Clinical State Score (CSS) diarrhoea ([2]; single IP 0.21 mmol/kg): 1
- Clinical State Score (CSS) lethargy ([2]; single IP 0.21 mmol/kg): 2
- Clinical State Score (CSS) rough coat ([2]; single IP 0.21 mmol/kg): 4
- Clinical State Score (CSS) total ([2]; single IP 0.21 mmol/kg): 7
- Number of deaths (day) ([2]; single IP 0.21 mmol/kg): 1 (D1)
- Number of deaths (day) ([2]; single IP 0.28 mmol/kg): 4 (D1)
- Number of deaths (day) ([2]; single IP 0.56 mmol/kg): 4 (D1)
- Number of deaths (day) ([2]; single IP 0.76 mmol/kg): 5 (D1)
- doses inducing 100% mortality [2]: 0.76 mmol/kg

Structure (SMILES): CC(=O)OC[C@H]1O[C@@H](Oc2ccc(NC(=O)CNC(=O)CCCc3ccc(N(CCCl)CCCl)cc3)cc2)[C@H](F)[C@@H](OC(C)=O)[C@@H]1OC(C)=O [Compound 40a, N-{2-[4-(3,4,6-tri-O-acetyl-2-deoxy-2-fluoro-β-D-glucopyranosyloxy)phenyl]amino-2-oxoethyl}-4-{4-[bis(2-chloroethyl)amino]phenyl}butanamide]
- tumour growth inhibition (CTW time-course) [1, 3]: significant tumour growth inhibition
- LCK ([1]; dosage not stated): around 1.5
- Antitumour Efficacy ([1]; 75% MTD, IP D8, D12, D16): ++ (1.7 < LCK < 1.9 highly active drug (++))
- LCK ([1]; 75% MTD, IP D8, D12, D16): 1.52
- Survival Mt/Mc ([1]; 75% MTD, IP D8, D12, D16): 1.29
- Weight loss (% max) ([1]; 75% MTD, IP D8, D12, D16): 21% and 21.5%
- antitumour activity according to the NCI criteria decisions [1]: highly active
- Life span of the animals [1]: increased
- dosage inducing high side effects (mainly diarrhoea) [2]: ≥ 0.07 mmol/kg
- MTD at 2 weeks [2]: 140 µmol/kg
- Weight loss at day 1 ([2]; single IP 0.07 mmol/kg): 6.3%
- Clinical State Score (CSS) closed eyes ([2]; single IP 0.07 mmol/kg): 0
- Clinical State Score (CSS) diarrhoea ([2]; single IP 0.07 mmol/kg): 2
- Clinical State Score (CSS) lethargy ([2]; single IP 0.07 mmol/kg): 0
- Clinical State Score (CSS) rough coat ([2]; single IP 0.07 mmol/kg): 0
- Clinical State Score (CSS) total ([2]; single IP 0.07 mmol/kg): 2
- Number of deaths (day) ([2]; single IP 0.07 mmol/kg): 0
- Weight loss at day 1 ([2]; single IP 0.14 mmol/kg): 14.9%
- Clinical State Score (CSS) closed eyes ([2]; single IP 0.14 mmol/kg): 0
- Clinical State Score (CSS) diarrhoea ([2]; single IP 0.14 mmol/kg): 2
- Clinical State Score (CSS) lethargy ([2]; single IP 0.14 mmol/kg): 0
- Clinical State Score (CSS) rough coat ([2]; single IP 0.14 mmol/kg): 0
- Clinical State Score (CSS) total ([2]; single IP 0.14 mmol/kg): 2
- Number of deaths (day) ([2]; single IP 0.14 mmol/kg): 0
- Weight loss at day 1 ([2]; single IP 0.18 mmol/kg): 8.2%
- Clinical State Score (CSS) closed eyes ([2]; single IP 0.18 mmol/kg): 0
- Clinical State Score (CSS) diarrhoea ([2]; single IP 0.18 mmol/kg): 3
- Clinical State Score (CSS) lethargy ([2]; single IP 0.18 mmol/kg): 0
- Clinical State Score (CSS) rough coat ([2]; single IP 0.18 mmol/kg): 3
- Clinical State Score (CSS) total ([2]; single IP 0.18 mmol/kg): 6
- Number of deaths (day) ([2]; single IP 0.18 mmol/kg): 2
- Number of deaths (day) ([2]; single IP 0.21 mmol/kg): 3 (D6)
- Weight loss at day 1 ([2]; single IP 0.28 mmol/kg): 18.3%
- Clinical State Score (CSS) closed eyes ([2]; single IP 0.28 mmol/kg): 2
- Clinical State Score (CSS) diarrhoea ([2]; single IP 0.28 mmol/kg): 4
- Clinical State Score (CSS) lethargy ([2]; single IP 0.28 mmol/kg): 2
- Clinical State Score (CSS) rough coat ([2]; single IP 0.28 mmol/kg): 0
- Clinical State Score (CSS) total ([2]; single IP 0.28 mmol/kg): 8
- Number of deaths (day) ([2]; single IP 0.28 mmol/kg): 2 (D1)
- Number of deaths (day) ([2]; single IP 0.42 mmol/kg): 3(D6)
- Number of deaths (day) ([2]; single IP 0.56 mmol/kg): 5(D6,7,9,13,15)
- doses inducing 100% mortality [2]: 0.56 mmol/kg
